Experimental data reported in patent publication US20260209214A1, “LSD1 MODULATORS” (RECURSION PHARMACEUTICALS, INC., priority 2022, published 2026).
Counter-ions that a name gives are not always drawn.

Molecular target: Recombinant human LSD1 (Homo sapiens, UniProt O60341)
Assay: LSD1 inhibition assay (HTRF LSD1 Histone H3K4 mono-demethylation assay, me1->me0)
Format: biochemical
Details: 20 nM recombinant human LSD1, 95 nM H3K4(me1) biotinylated peptide, 15 min preincubation, 60 min at 25° C., read-out: LSD1 inhibition IC50 (nM range)
Method in brief: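 HTRF demethylation (me1->me0) read-out: streptavidin-XL665 and anti-H3K4me0 cryptate added after reaction, ratio measured after 90 min dark. Reaction: 95 nM H3K4me1 biotin-peptide, 20 nM LSD1 (15-min compound pre-incubation), 60 min, 25 °C, buffer pH 8.5 plus FAD and DTT; 4-parameter logistic IC50.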

| SMILES | IC50 [nM] |
| --- | --- |
| CC(c1ccc(N2CCC2)c(-c2ccc(C#N)c(F)c2)c1)C1CNCCO1 (stereo not shown) [Example 144, 2′-(azetidin-1-yl)-3-fluoro-5′-[1-(morpholin-2-yl)ethyl]-[1,1′-biphenyl]-4-carbonitrile] | > 1000 |
| N#Cc1ccc(-c2cc(CN3[C@@H]4CC[C@H]3[C@@H](N)C4)ccc2C2CC2)cc1F (racemic) [Example 309, 5'-{[(1S,2S,4R)-2-amino-7-azabicyclo[2.2.1]heptan-7-yl]methyl}-2'-cyclopropyl-3-fluoro-[1,1'-biphenyl]-4-carbonitrile] | 10 to 25 |
| CN[C@@H]1CCN(Cc2cccc(-c3ccc(C#N)c(F)c3)c2C2CC2)C1 [Example 228, 2'-cyclopropyl-3-fluoro-3'-{[(3R)-3-(methylamino)pyrrolidin-1-yl]-methyl}-[1,1'-biphenyl]-4-carbonitrile] | 100 to 1000 |
| CNC1CCN(Cc2cccc(-c3ccc(C#N)c(F)c3)c2-c2cnco2)C1 (stereo not shown) [Example 336, 3-fluoro-3'-{[3-(methylamino)pyrrolidin-1-yl]methyl}-2'-(1,3-oxazol-5-yl)-[1,1'-biphenyl]-4-carbonitrile] | 10 to 25 |
| Cc1cc(CNCC2(C)CCN(C)C2)c(Cl)c(-c2ccc(C#N)c(F)c2)c1 (stereo not shown) [Example 298, 2'-chloro-3'-({[(1,3-dimethylpyrrolidin-3-yl)methyl]amino}methyl)-3-fluoro-5'-methyl-[1,1'-biphenyl]-4-carbonitrile] | 100 to 1000 |
| N#Cc1ccc(-c2cccc(C[C@H]3CNCCO3)c2-c2ccns2)cc1 (single isomer, unassigned) [Example 5, hydrochloride] | 10 to 25 |
| Cc1cc(CN2CCC3(CCN3C)C2)c(Cl)c(-c2ccc(C#N)c(F)c2)c1 (stereo not shown) [Compound 240] | 25 to 100 |
| N#Cc1ccc(-c2cc(CC3CNCCO3)ccc2N2CCC(C3CCOC3)CC2)cc1F (stereo not shown) [Example 100, 3-fluoro-5′-[(morpholin-2-yl)methyl]-2′-[4-(oxolan-3-yl)piperidin-1-yl]-[1,1′-biphenyl]-4-carbonitrile] | 25 to 100 |
| N#Cc1ccc(-c2cccc(Cn3cc4c(n3)CNCC4)c2-c2cncs2)cc1F [Example 236, 3-fluoro-3'-({2H,4H,5H,6H,7H-pyrazolo[3,4-c]pyridin-2-yl}methyl)-2'-(1,3-thiazol-5-yl)-[1,1'-biphenyl]-4-carbonitrile] | 25 to 100 |
| N#Cc1ccc(-c2cccc(CN3CCC[C@H]4NCC[C@H]43)c2-c2cncs2)cc1F (racemic) [Example 279, 3'-{[(3aR,7aR)-otcahydro-1H-pyrrolo[3,2-b]pyridin-4-yl]methyl}-3-fluoro-2'-(1,3-thiazol-5-yl)-[1,1'-biphenyl]-4-carbonitrile] | 10 to 25 |
| Cc1cc(CN2C[C@@H]3C[C@H]2CN3)c(Cl)c(-c2ccc(C#N)c(F)c2)c1 [Example 299, 2′-chloro-3'-{[(1S,4S)-2,5-diazabicyclo[2.2.1]heptan-2-yl]methyl}-3-fluoro-5'-methyl-[1,1'-biphenyl]-4-carbonitrile] | 25 to 100 |
| N#Cc1ccc(-c2ccc(F)c(CN3C[C@]4(N)CC[C@H]3C4)c2Cl)cc1F [Example 208, 3'-{[(1S,4S)-4-amino-2-azabicyclo[2.2.1]heptan-2-yl]methyl}-2'-chloro-3,4'-difluoro-[1,1'-biphenyl]-4-carbonitrile] | 25 to 100 |
| Cc1cc(NC[C@@H]2CNCCO2)c(Cl)c(-c2ccc(C#N)c(F)c2)c1 (single isomer, unassigned) [Example 87] | > 1000 |
| N#Cc1ccc(-c2cccc(OC3CC4CNC3C4)c2-c2ccns2)cc1F (stereo not shown) [Example 112, 3′-{2-azabicyclo[2.2.1]heptan-6-yloxy}-3-fluoro-2′-(1,2-thiazol-5-yl)-[1,1′-biphenyl]-4-carbonitrile] | 10 to 25 |
| N#Cc1ccc(-c2cccc(CC3CNCCO3)c2N2CCC2)cc1 (stereo not shown) [Example 50, 2′-(azetidin-1-yl)-3′-[(morpholin-2-yl)methyl]-[1,1′-biphenyl]-4-carbonitrile] | 100 to 1000 |
| CC1(C)CN(Cc2cccc(-c3ccc(C#N)c(F)c3)c2C2CC2)CC1N (stereo not shown) [Example 278, 3'-[(4-amino-3,3-dimethylpyrrolidin-1-yl)methyl]-2'-cyclopropyl-3-fluoro-[1,1'-biphenyl]-4-carbonitrile] | 100 to 1000 |
| N#Cc1ccc(-c2cccc(CN3C[C@]4(N)CC[C@H]3C4)c2N2CCC2)cc1F [Example 172, N[C@@]12CC[C@@H](C1)N(Cc3cccc(c4ccc(C#N)c(F)c4)c3N5CCC5)C2] | 10 to 25 |
| N#Cc1ccc(-c2cccc(COC3CCNC3)c2-c2cnco2)cc1F (stereo not shown) [Example 154, 3-fluoro-2′-(1,3-oxazol-5-yl)-3′-[(pyrrolidin-3-yloxy)methyl]-[1,1′-biphenyl]-4-carbonitrile] | 10 to 25 |
| Cn1nc2ccc(-c3ccc(CN4C[C@]5(N)CC[C@H]4C5)cc3-c3ccc(C#N)c(F)c3)cc2c1Cl [Example 263, 5'-{[(1S,4S)-4-amino-2-azabicyclo[2.2.1]heptan-2-yl]methyl}-2'-(3-chloro-2-methyl-2H-indazol-5-yl)-3-fluoro-[1,1'-biphenyl]-4-carbonitrile] | < 10 |
| N#Cc1ccc(-c2cc(CN3[C@@H]4CC[C@H]3[C@@H](N)C4)ccc2OCC(F)(F)F)cc1F (racemic) [Example 316, 5'-{[(1S,2S,4R)-2-amino-7-azabicyclo[2.2.1]heptan-7-yl]methyl}-3-fluoro-2'-(2,2,2-trifluoroethoxy)-[1,1'-biphenyl]-4-carbonitrile] | 10 to 25 |
| Cc1cc(CC2CNCCO2)c(-c2ccns2)c(-c2ccc(C#N)cc2)c1 (stereo not shown) [Example 53, 5′-methyl-3′-[(morpholin-2-yl)methyl]-2′-(1,2-thiazol-5-yl)-[1,1′-biphenyl]-4-carbonitrile] | 10 to 25 |
| Cc1cc(CN2C[C@H]3C[C@@H]2CN3)c(C)c(-c2ccc(C#N)c(F)c2)c1 [Example 293, 3'-{[(1R,4R)-2,5-diazabicyclo[2.2.1]heptan-2-yl]methyl}-3-fluoro-2',5'-dimethyl-[1,1'-biphenyl]-4-carbonitrile] | 100 to 1000 |
| CN[C@]12CC[C@H](C1)N(Cc1cccc(-c3ccc(C#N)c(F)c3)c1C1CC1)C2 [Example 195, 2'-cyclopropyl-3-fluoro-3'-{[(1R,4R)-4-(methylamino)-2-azabicyclo[2.2.1]heptan-2-yl]methyl}-[1,1'-biphenyl]-4-carbonitrile] | 10 to 25 |
| CN1CCC12CCN(Cc1c(F)ccc(-c3ccc(C#N)c(F)c3)c1Cl)C2 (stereo not shown) [Example 289, 2'-chloro-3,4'-difluoro-3'-({1-methyl-1,6-diazaspiro[3.4]octan-6-yl}methyl)-[1,1'-biphenyl]-4-carbonitrile] | 100 to 1000 |
| N#Cc1ccc(-c2cccc(CN3C[C@@H]4CNC[C@H]4C3)c2-c2cncs2)cc1F [Example 324, 3'-{[(3aS,6aS)-octahydropyrrolo[3,4-c]pyrrol-2-yl]methyl}-3-fluoro-2'-(1,3-thiazol-5-yl)-[1,1'-biphenyl]-4-carbonitrile] | 10 to 25 |

More lines, now with the values ahead:

| IC50 [nM] | SMILES |
| --- | --- |
| > 1000 | N#Cc1ccc(-c2cc(CC3CNCCO3)ccc2N[C@H]2CCCOC2)cc1F (stereo partly drawn) [Example 123, 3-fluoro-5′-[(morpholin-2-yl)methyl]-2′-{[(3S)-oxan-3-yl]amino}-[1,1′-biphenyl]-4-carbonitrile] |
| < 10 | N#Cc1ccc(-c2cccc(C[C@H]3CNCCO3)c2-c2ccns2)cc1F [Example 4, 3-fluoro-3′-{[(2S)-morpholin-2-yl]methyl}-2′-(1,2-thiazol-5-yl)-[1,1′-biphenyl]-4-carbonitrile] |
| 100 to 1000 | N#Cc1ccc(-c2cc(CC3CNCCO3)ccc2N2CC3(CCOCC3)C2)cc1F (stereo not shown) [Example 62, 3-fluoro-5′-[(morpholin-2-yl)methyl]-2′-{7-oxa-2-azaspiro[3.5]nonan-2-yl}-[1,1′-biphenyl]-4-carbonitrile] |
| 25 to 100 | Cn1nc2ccc(-c3ccc(CC4CNCCO4)cc3-c3ccc(C#N)c(F)c3)cc2c1Cl (stereo not shown) [Example 91, 2′-(3-chloro-2-methyl-2H-indazol-5-yl)-3-fluoro-5′-[(morpholin-2-yl)methyl]-[1,1′-biphenyl]-4-carbonitrile] |
| 100 to 1000 | Cc1ncc(-c2c(CC3CNCCO3)cccc2-c2ccc(C#N)c(F)c2)o1 (stereo not shown) [Example 69, 3-fluoro-2′-(2-methyl-1,3-oxazol-5-yl)-3′-[(morpholin-2-yl)methyl]-[1,1′-biphenyl]-4-carbonitrile] |
| 100 to 1000 | N#Cc1ccc(-c2cc(C[C@@H]3CNCCO3)ccc2N2CCC2)cc1F (single isomer, unassigned) [Example 41] |
| 10 to 25 | N#Cc1ccc(-c2cccc(C[C@H]3CNCCO3)c2-c2ccno2)cc1F (single isomer, unassigned) [Example 17] |
| < 10 | N#Cc1ccc(-c2cccc(CC3CNCCCO3)c2-c2ccns2)cc1F (stereo not shown) [Example 20, 3-fluoro-3′-[(1,4-oxazepan-2-yl)methyl]-2′-(1,2-thiazol-5-yl)-[1,1′-biphenyl]-4-carbonitrile] |
| 25 to 100 | N#Cc1ccc(-c2cccc(CC3CNCCO3)c2-c2cnccn2)cc1F (stereo not shown) [Example 128, 3-fluoro-3′-[(morpholin-2-yl)methyl]-2′-(pyrazin-2-yl)-[1,1′-biphenyl]-4-carbonitrile] |
| 25 to 100 | CCC1(O)CCN(c2ccc(CC3CNCCO3)cc2-c2ccc(C#N)c(F)c2)CC1 (stereo not shown) [Example 33, 2′-(4-ethyl-4-hydroxypiperidin-1-yl)-3-fluoro-5′-[(morpholin-2-yl)methyl]-[1,1′-biphenyl]-4-carbonitrile] |
| 100 to 1000 | COc1ccc(-c2ccc(CC3CNCCO3)cc2-c2ccc(C#N)c(F)c2)nc1 (stereo not shown) [Example 133, 3-fluoro-2′-(5-methoxypyridin-2-yl)-5′-[(morpholin-2-yl)methyl]-[1,1′-biphenyl]-4-carbonitrile] |
| 25 to 100 | COCC1CCN(c2ccc(CC3CNCCO3)cc2-c2ccc(C#N)c(F)c2)CC1 (stereo not shown) [Example 67, 3-fluoro-2′-[4-(methoxymethyl)piperidin-1-yl]-5′-[(morpholin-2-yl)methyl]-[1,1′-biphenyl]-4-carbonitrile] |
